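Cultured in 96-well plates, cells were exposed to test compound for 48 hours across five concentrations. GI50 marks 50% less growth.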 Active and inactive are the calls of the source. Rule as the data show it: active = GI50 up to about 1.1 µM and inactive = higher.
Legend:
Experiment in all cases: DTP human tumour cell line panel, 48 h
SK-OV-3 = test system: SK-OV-3
TK-10 = test system: TK-10
SNB-75 = test system: SNB-75
SW-620 = test system: SW-620
K562 = test system: K562
SK-MEL-2 = test system: SK-MEL-2
UACC-257 = test system: UACC-257
OVCAR-4 = test system: OVCAR-4
OVCAR-8 = test system: OVCAR-8
SN12C = test system: SN12C
CCRF-CEM = test system: CCRF-CEM
HCC 2998 = test system: HCC 2998
NCI-H23 = test system: NCI-H23
NCI-H522 = test system: NCI-H522
RXF 393 = test system: RXF 393
HOP-62 = test system: HOP-62
EKVX = test system: EKVX
SK-MEL-28 = test system: SK-MEL-28
SF-268 = test system: SF-268
HOP-92 = test system: HOP-92

Measured: GI50

COC(=O)CNS(=O)(=O)c1ccc(-c2c3nc(c(-c4ccc(S(=O)(=O)NCC(=O)OC)cc4)c4ccc([nH]4)c(-c4ccc(S(=O)(=O)NCC(=O)OC)cc4)c4nc(c(-c5ccc(S(=O)(=O)NCC(=O)OC)cc5)c5ccc2[nH]5)C=C4)C=C3)cc1
inactive: SK-OV-3 > 100 µM | TK-10 > 100 µM | SNB-75 > 100 µM | SW-620 > 100 µM | K562 > 100 µM | SK-MEL-2 > 100 µM | UACC-257 > 100 µM | OVCAR-4 > 100 µM | OVCAR-8 > 100 µM | SN12C > 100 µM | CCRF-CEM > 100 µM | HCC 2998 > 100 µM | NCI-H23 > 100 µM | NCI-H522 > 100 µM | RXF 393 > 100 µM | HOP-62 > 100 µM | EKVX > 100 µM | SK-MEL-28 > 100 µM | SF-268 > 100 µM

COc1ccc(N2C(=O)[C@@H]3[C@H](C2=O)c2[nH]c4ccccc4c2C2CCC(C(C)(C)C)C[C@@H]23)cc1 (some centres undefined)
inactive: SK-OV-3 18.6 µM | TK-10 28 µM | SNB-75 15.9 µM | SW-620 35.2 µM | K562 14.5 µM | SK-MEL-2 30.4 µM | UACC-257 40.6 µM | OVCAR-8 18 µM | SN12C 14 µM | CCRF-CEM 15.3 µM | HCC 2998 29.5 µM | NCI-H23 22.4 µM | NCI-H522 18.5 µM | RXF 393 17.3 µM | HOP-62 16.5 µM | EKVX 28.4 µM | SK-MEL-28 34.4 µM | SF-268 29.9 µM

O=C1c2ccccc2-n2nnnc2C2CSCN12 (centres undefined)
inactive: SK-OV-3 > 100 µM | TK-10 > 100 µM | SNB-75 > 100 µM | SW-620 > 100 µM | K562 56.2 µM | SK-MEL-2 > 100 µM | UACC-257 > 100 µM | OVCAR-4 > 100 µM | OVCAR-8 > 100 µM | SN12C > 100 µM | CCRF-CEM > 100 µM | HCC 2998 > 100 µM | NCI-H522 > 100 µM | RXF 393 > 100 µM | HOP-62 > 100 µM | EKVX > 100 µM | SK-MEL-28 > 100 µM | SF-268 > 100 µM

CCOC(=O)C1(C#N)C(c2ccccc2)CC(O)(c2ccc(Cl)cc2)C(C(=O)c2ccc(Cl)cc2)C1c1ccccc1 (centres undefined)
inactive: SK-OV-3 38.6 µM | TK-10 > 100 µM | SNB-75 21.1 µM | SW-620 > 100 µM | K562 > 10 µM | SK-MEL-2 > 100 µM | UACC-257 > 100 µM | OVCAR-4 > 100 µM | OVCAR-8 > 100 µM | SN12C > 100 µM | CCRF-CEM > 100 µM | HCC 2998 > 100 µM | NCI-H23 > 100 µM | NCI-H522 35 µM | RXF 393 37.8 µM | HOP-62 > 100 µM | EKVX 52.2 µM | SK-MEL-28 > 100 µM | SF-268 > 100 µM

N#C/C(=C1/c2cc([N+](=O)[O-])ccc2-c2c1cc([N+](=O)[O-])cc2[N+](=O)[O-])N1CCCCC1
inactive: SK-OV-3 93.1 µM | TK-10 > 100 µM | SNB-75 16.9 µM | SW-620 > 100 µM | K562 > 100 µM | SK-MEL-2 > 100 µM | UACC-257 > 100 µM | OVCAR-4 23.9 µM | OVCAR-8 > 100 µM | SN12C > 100 µM | CCRF-CEM > 100 µM | HCC 2998 > 100 µM | NCI-H23 55.7 µM | NCI-H522 46.6 µM | RXF 393 34.6 µM | HOP-62 32.4 µM | EKVX > 100 µM | SK-MEL-28 > 100 µM | SF-268 > 100 µM

N#Cc1nc(COCCOCc2ccc(F)cc2)oc1N
inactive: SK-OV-3 > 100 µM | TK-10 > 100 µM | SNB-75 > 100 µM | SW-620 > 100 µM | K562 > 100 µM | SK-MEL-2 > 100 µM | UACC-257 > 100 µM | OVCAR-4 > 100 µM | OVCAR-8 > 100 µM | SN12C > 100 µM | CCRF-CEM 64.6 µM | HCC 2998 > 100 µM | NCI-H23 > 100 µM | NCI-H522 29 µM | RXF 393 > 100 µM | HOP-62 > 100 µM | EKVX > 100 µM | SK-MEL-28 > 100 µM | SF-268 > 100 µM

COc1ccc(C2=C(OC(C)=O)c3cccn3-c3ccccc3S2)cc1
inactive: SK-OV-3 2.65 µM | TK-10 > 10 µM | SNB-75 2.41 µM | SW-620 2.55 µM | HOP-92 1.58 µM | UACC-257 > 10 µM | OVCAR-4 4.69 µM | OVCAR-8 5.82 µM | SN12C 1.29 µM | CCRF-CEM 2.9 µM | HCC 2998 2.95 µM | NCI-H23 1.89 µM | RXF 393 1.61 µM | HOP-62 3.1 µM | SK-MEL-28 3.66 µM | SF-268 > 10 µM

CC(C)(C)OC(=O)CC(NC(=O)OC(C)(C)C)C(=O)NC(C(=O)O)C(O)c1ccccc1 (centres undefined)
inactive: SK-OV-3 41.7 µM | TK-10 > 100 µM | SNB-75 > 100 µM | SW-620 40.3 µM | K562 46.9 µM | SK-MEL-2 > 100 µM | UACC-257 > 100 µM | OVCAR-4 > 100 µM | OVCAR-8 > 100 µM | CCRF-CEM 51.4 µM | HCC 2998 14.3 µM | NCI-H23 > 100 µM | NCI-H522 > 100 µM | RXF 393 57.9 µM | HOP-62 > 100 µM | EKVX > 100 µM | SK-MEL-28 > 100 µM | SF-268 50.2 µM

N#CC[C@@H](O)COc1ccccc1
inactive: SK-OV-3 > 100 µM | TK-10 > 100 µM | SNB-75 > 100 µM | SW-620 > 100 µM | K562 > 100 µM | SK-MEL-2 > 100 µM | UACC-257 > 100 µM | OVCAR-4 > 100 µM | OVCAR-8 > 100 µM | SN12C > 100 µM | CCRF-CEM > 100 µM | HCC 2998 > 100 µM | NCI-H23 > 100 µM | NCI-H522 > 100 µM | RXF 393 > 100 µM | HOP-62 > 100 µM | EKVX > 100 µM | SK-MEL-28 > 100 µM | SF-268 > 100 µM

O=C1C(Cl)C(c2ccccc2Cl)N1n1cnc2ccccc2c1=O (centres undefined)
inactive: SK-OV-3 24.2 µM | TK-10 46.7 µM | SNB-75 20.2 µM | SW-620 31.9 µM | K562 18.7 µM | SK-MEL-2 24.7 µM | UACC-257 37.2 µM | OVCAR-4 > 100 µM | OVCAR-8 > 100 µM | SN12C > 100 µM | CCRF-CEM 45.8 µM | HCC 2998 39.6 µM | NCI-H23 49.1 µM | NCI-H522 25.8 µM | RXF 393 17.5 µM | HOP-62 16.3 µM | EKVX 18.5 µM | SK-MEL-28 > 100 µM | SF-268 54.5 µM
